# Key:
# [1] = system: subjects suffering from active moderate to severe Crohn's disease; test: Phase III randomized, double-blind, placebo-controlled study of oral laquinimod in active moderate to severe Crohn's disease (12 weeks); format: in vivo, human; settings: 0.25 mg/day oral vs 0.5 mg/day, Example 1
# Procedure: A phase III, multicenter, randomized, double-blind, placebo-controlled study is conducted to evaluate Laquinimod in active moderate to severe Crohn's disease. There are ˜540 Crohn's disease patients enrolled, divided into 3 arms of ˜180 patients, randomized in a […] ratio (˜180 subjects on laquinimod 0.25 mg, ˜180 on laquinimod 0.5 mg, and ˜180 on placebo). One or more capsules containing laquinimod 0.25 mg, laquinimod 0.5 mg, or matching placebo are administered orally once daily; A loading dose regimen of double the maintenance/intended dose is given during the first two days of study drug treatment. Thereafter, starting on day 3, the daily maintenance/intended dose is administered. Patients with moderate to severe Crohn's disease (CD), as determined by a Crohn's Disease Activity Index (CDM) score of 220-450 (inclusive) and evidence of active endoscopic inflammatory disease, based on Crohn's Disease Endoscopic index of Severity (CDEIS) score >6 points. […] The timing of the ileocelonosoopy is arranged so that it takes place after the last day on which data are recorded for the CDAI assessment. […] Each endoscopy is recorded, and then read and scored by a central reader for endoscopic scores of CDEIS and SES-CD. […]
# [2] = system: subjects suffering from active moderate to severe Crohn's disease; test: Phase III randomized, double-blind, placebo-controlled 52-week maintenance of remission study of laquinimod in Crohn's disease patients; format: in vivo, human; settings: 0.25 mg/day oral vs 0.5 mg/day, Example 2
# Procedure: A phase III, randomized, double-blind, placebo-controlled 52-week maintenance of remission study of laquinimod is conducted in Crohn's disease patients.
# One or more capsules containing laquinimod 0.25 mg, laquinimod 0.5 mg, or matching placebo are administered orally once daily (QD)
# Patients with a Response at Week 12 in any of the induction studies, TV5500-IMM-30009, TV5600-IMM-30012, or TV5500-IMM-10013, are re-randomized into this placebo-controlled maintenance study. Response at Week 12 in those induction studies is defined as a Crohn's Disease Activity Index (CDAI) reduction of at least 10 points from Baseline at Week 12. No new patients are included in this maintenance study. […]
# Ileonclonoscopy is performed at Baseline Week 12b Visit from the induction study) and Week 52 to directly assess endoscopic disease and mucosal healing. The timing of the ileocolonoscopy is arranged so that it takes place after the final day on which data is recorded for the Week 52 CDAI assessment, and allows time for adequate ileocolonoscopy preparation; consequently, the Week 52 ileocolcnoscopy is performed separately from but within 7 days of) the other Week 52 assessments each endosoopy is recorded, read, and scored by a central reader for an endoscopic score of cDEIS, and mucosal healing determination, […]
# [3] = system: subjects suffering from active moderate to severe Crohn's disease; test: Phase III open-label 64-week induction and maintenance study of laquinimod in Crohn's disease patients; format: in vivo, human; settings: 0.25 mg/day oral vs 0.5 mg/day, Example 3
# Procedure: A phase III, randomized, open-label 64-week induction and maintenance study of laquinimod is conducted in Crohn's disease patients,
# One capsule containing laquinimod 0.25 mg or laquinimod 0.5 mg is administered orally once daily at the same hour:
# Response at Week 12 in those induction studies is defined as a Crohn's Disease Activity Index (COAT) reduction, of at least 70 points from Baseline. It is anticipated that many non-responders received placebo in the induction studies, so that TV5600-IMM-30011 is their first opportunity to be exposed to any dose of laquinimod. No new patients are included in this study.
# Treatment duration is up to 64 weeks. The initial phase of the treatment duration is 12 weeks. Scheduled in-clinic visits are conducted at Baseline (Week 0, Visit 1) and at Weeks 2, 4, 8, and 12. The Baseline visit (Week 0, Visit 1) for this study is the same as the Week 12 visit in the relevant induction study (i.e., not an additional visit). Some additional procedures may be performed on this day, as a part of the TV5600-114M-30011 protocol but not the induction study protocol. Unscheduled visits for safety or for any other reason are conducted at any time during the study. At Week 12 (and at subsequent visits), patients undergo a clinical assessment and are offered either release from the study or continuation of maintenance therapy at the existing dose. […]
# [4] = cited from earlier work
compound,measurement,setting,value
CCN(C(=O)c1c(O)c2c(Cl)cccc2n(C)c1=O)c1ccccc1 [laquinimod],adverse effects of 0.25 mg/day as compared to 0.5 mg/day,[1],maintaining or reducing adverse effects
same,"efficacy of 0.25 mg/day as compared to 0.5 mg/day (symptoms, clinical response, remission, CDAI, CDEIS, mucosal healing, CRP, fecal calprotectin, IBDQ, WPAI:CD, EQ-5D)",[1],"at least as effective, or more effective"
same,adverse effects of 0.25 mg/day as compared to 0.5 mg/day,[2],maintaining or reducing adverse effects
same,"efficacy of 0.25 mg/day as compared to 0.5 mg/day (symptoms, clinical response, remission, CDAI, CDEIS, mucosal healing, CRP, fecal calprotectin, IBDQ, WPAI:CD, EQ-5D)",[2],"at least as effective, or more effective"
same,adverse effects of 0.25 mg/day as compared to 0.5 mg/day,[3],maintaining or reducing adverse effects
same,"efficacy of 0.25 mg/day as compared to 0.5 mg/day (symptoms, clinical response, remission, CDAI, CRP, fecal calprotectin, IBDQ, WPAI:CD, EQ-5D)",[3],"at least as effective, or mare effective"
same,oral bioavailability,[4],high

# Reference: patent US20160331742A1, “TREATMENT OF CROHN'S DISEASE USING LOW DOSES OF LAQUINIMOD” (Teva Pharmaceutical Industries, Ltd., priority 2014, published 2016)
